Literature values, collected in patent US4259319A, “Antibiotic auromomycin, and process for production thereof” (Kanegafuchi Chemical Industry Company, Limited, priority 1977, dated 1981).

How the values were obtained:
[1] = system: Gram-positive bacteria; details: comparison substance
[2] = comparison substance

## neocarcinostatin
[1]
  Antibacterial activity: inhibiting only Grampositive bacteria
[2]
  isoelectric point: 3.5 pH
